Experimental data: the supplement of paper PMC10307832

Tests used:
Assay in all cases: relative viability (nuclei count vs DMSO), 5 days (fraction); higher = more cells survive
NCI-H650 = test system: NCI-H650
Procedure, shortened: (§1)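 Medians of duplicate plates are given as relative viability. That measure is the nuclei count in treated wells divided by the count in vehicle wells. Counts were taken on 4× images of lung cancer cell lines in 1536-well plates, 5 days after pin-tool dosing the day after seeding with one drug alone or a fixed anchor-drug dose plus five library-drug doses (not always all listed) in √10 steps.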

EPLC-272H = test system: EPLC-272H
Procedure, shortened: as §1

NCI-H2087 = test system: NCI-H2087
Procedure, shortened: as §1

NCI-H2085 = test system: NCI-H2085
Procedure, shortened: as §1

LCLC-103H = test system: LCLC-103H
Procedure, shortened: as §1

RERF-LC-KJ = test system: RERF-LC-KJ
Procedure, shortened: as §1

NCI-H2170 = test system: NCI-H2170
Procedure, shortened: as §1

PC-14 = test system: PC-14
Procedure, shortened: as §1

SK-MES-1 = test system: SK-MES-1
Procedure, shortened: as §1

NCI-H647 = test system: NCI-H647
Procedure, shortened: as §1

NCI-H1395 = test system: NCI-H1395
Procedure, shortened: as §1

NCI-H3122 = test system: NCI-H3122
Procedure, shortened: as §1

A-427 = test system: A-427
Procedure, shortened: as §1

NCI-H1651 = test system: NCI-H1651
Procedure, shortened: as §1

COR-L 105 = test system: COR-L 105
Procedure, shortened: as §1

LXF-289 = test system: LXF-289
Procedure, shortened: as §1

NCI-H1975 = test system: NCI-H1975
Procedure, shortened: as §1

NCI-H1993 = test system: NCI-H1993
Procedure, shortened: as §1

NCI-H2023 = test system: NCI-H2023
Procedure, shortened: as §1

NCI-H596 = test system: NCI-H596
Procedure, shortened: as §1

HOP-62 = test system: HOP-62
Procedure, shortened: as §1

COR-L23 = test system: COR-L23
Procedure, shortened: as §1

SMILES: O=c1[nH]c2ccccc2n1C1CCN(CCCC(c2ccc(F)cc2)c2ccc(F)cc2)CC1 [Pimozide] + Nc1ncn([C@H]2C[C@H](O)[C@@H](CO)O2)c(=O)n1 [Decitabine] (partner 2 µM)
- relative viability (NCI-H650; first compound 0.08 µM): 0.278
- relative viability (NCI-H650; first compound 0.253 µM): 0.33
- relative viability (NCI-H650; first compound 0.8 µM): 0.342
- relative viability (NCI-H650; first compound 2.53 µM): 0.321
- relative viability (NCI-H650; first compound 8 µM): 0.275
- relative viability (EPLC-272H; first compound 0.08 µM): 0.309
- relative viability (EPLC-272H; first compound 0.253 µM): 0.362
- relative viability (EPLC-272H; first compound 0.8 µM): 0.33
- relative viability (EPLC-272H; first compound 2.53 µM): 0.32
- relative viability (EPLC-272H; first compound 8 µM): 0.318
- relative viability (NCI-H2087; first compound 0.08 µM): 0.277
- relative viability (NCI-H2087; first compound 0.253 µM): 0.328
- relative viability (NCI-H2087; first compound 2.53 µM): 0.342
- relative viability (NCI-H2087; first compound 8 µM): 0.275
- relative viability (NCI-H2085; first compound 0.08 µM): 0.545
- relative viability (NCI-H2085; first compound 0.253 µM): 0.544
- relative viability (NCI-H2085; first compound 0.8 µM): 0.573
- relative viability (NCI-H2085; first compound 2.53 µM): 0.551
- relative viability (NCI-H2085; first compound 8 µM): 0.585
- relative viability (LCLC-103H; first compound 0.08 µM): 0.765
- relative viability (LCLC-103H; first compound 0.253 µM): 0.712
- relative viability (LCLC-103H; first compound 0.8 µM): 0.674
- relative viability (LCLC-103H; first compound 2.53 µM): 0.691
- relative viability (LCLC-103H; first compound 8 µM): 0.707
- relative viability (RERF-LC-KJ; first compound 0.08 µM): 0.674
- relative viability (RERF-LC-KJ; first compound 0.253 µM): 0.562
- relative viability (RERF-LC-KJ; first compound 0.8 µM): 0.63
- relative viability (RERF-LC-KJ; first compound 2.53 µM): 0.401
- relative viability (RERF-LC-KJ; first compound 8 µM): 0.544
- relative viability (NCI-H2170; first compound 0.08 µM): 0.43
- relative viability (NCI-H2170; first compound 0.253 µM): 0.453
- relative viability (NCI-H2170; first compound 0.8 µM): 0.432
- relative viability (NCI-H2170; first compound 2.53 µM): 0.477
- relative viability (NCI-H2170; first compound 8 µM): 0.454
- relative viability (PC-14; first compound 0.253 µM): 0.221
- relative viability (PC-14; first compound 0.8 µM): 0.228
- relative viability (PC-14; first compound 2.53 µM): 0.144
- relative viability (PC-14; first compound 8 µM): 0.231
- relative viability (SK-MES-1; first compound 0.08 µM): 0.389
- relative viability (SK-MES-1; first compound 0.253 µM): 0.39
- relative viability (SK-MES-1; first compound 0.8 µM): 0.355
- relative viability (SK-MES-1; first compound 2.53 µM): 0.454
- relative viability (SK-MES-1; first compound 8 µM): 0.774
- relative viability (NCI-H647; first compound 0.08 µM): 0.37
- relative viability (NCI-H647; first compound 0.253 µM): 0.363
- relative viability (NCI-H647; first compound 0.8 µM): 0.392
- relative viability (NCI-H647; first compound 2.53 µM): 0.442
- relative viability (NCI-H647; first compound 8 µM): 0.508
- relative viability (NCI-H1395; first compound 0.08 µM): 0.692
- relative viability (NCI-H1395; first compound 0.253 µM): 0.74
- relative viability (NCI-H1395; first compound 0.8 µM): 0.633
- relative viability (NCI-H1395; first compound 2.53 µM): 0.691
- relative viability (NCI-H1395; first compound 8 µM): 0.637
- relative viability (NCI-H3122; first compound 0.08 µM): 0.435
- relative viability (NCI-H3122; first compound 0.253 µM): 0.392
- relative viability (NCI-H3122; first compound 0.8 µM): 0.418
- relative viability (NCI-H3122; first compound 2.53 µM): 0.413
- relative viability (NCI-H3122; first compound 8 µM): 0.416
- relative viability (A-427; first compound 0.08 µM): 0.527
- relative viability (A-427; first compound 0.253 µM): 0.583
- relative viability (A-427; first compound 0.8 µM): 0.606
- relative viability (A-427; first compound 2.53 µM): 0.479
- relative viability (A-427; first compound 8 µM): 0.57
- relative viability (NCI-H1651; first compound 0.08 µM): 0.597
- relative viability (NCI-H1651; first compound 0.253 µM): 0.507
- relative viability (NCI-H1651; first compound 0.8 µM): 0.719
- relative viability (NCI-H1651; first compound 2.53 µM): 0.588
- relative viability (NCI-H1651; first compound 8 µM): 0.611
- relative viability (COR-L 105; first compound 0.08 µM): 0.49
- relative viability (COR-L 105; first compound 0.253 µM): 0.702
- relative viability (COR-L 105; first compound 0.8 µM): 0.623
- relative viability (COR-L 105; first compound 2.53 µM): 0.659
- relative viability (COR-L 105; first compound 8 µM): 0.701
- relative viability (LXF-289; first compound 0.08 µM): 0.378
- relative viability (LXF-289; first compound 0.253 µM): 0.4
- relative viability (LXF-289; first compound 0.8 µM): 0.324
- relative viability (LXF-289; first compound 2.53 µM): 0.357
- relative viability (LXF-289; first compound 8 µM): 0.39
- relative viability (NCI-H1975; first compound 0.08 µM): 0.347
- relative viability (NCI-H1975; first compound 0.253 µM): 0.387
- relative viability (NCI-H1975; first compound 0.8 µM): 0.391
- relative viability (NCI-H1975; first compound 2.53 µM): 0.368
- relative viability (NCI-H1975; first compound 8 µM): 0.419
- relative viability (NCI-H1993; first compound 0.08 µM): 0.561
- relative viability (NCI-H1993; first compound 0.253 µM): 0.56
- relative viability (NCI-H1993; first compound 0.8 µM): 0.566
- relative viability (NCI-H1993; first compound 2.53 µM): 0.556
- relative viability (NCI-H1993; first compound 8 µM): 0.642
- relative viability (NCI-H2023; first compound 0.08 µM): 0.229
- relative viability (NCI-H2023; first compound 0.253 µM): 0.273
- relative viability (NCI-H2023; first compound 0.8 µM): 0.196
- relative viability (NCI-H2023; first compound 2.53 µM): 0.247
- relative viability (NCI-H2023; first compound 8 µM): 0.284
- relative viability (NCI-H596; first compound 0.08 µM): 0.97
- relative viability (NCI-H596; first compound 0.253 µM): 0.931
- relative viability (NCI-H596; first compound 0.8 µM): 0.986
- relative viability (NCI-H596; first compound 2.53 µM): 0.85
- relative viability (NCI-H596; first compound 8 µM): 1.08
- relative viability (HOP-62; first compound 0.08 µM): 0.231
- relative viability (HOP-62; first compound 0.253 µM): 0.228
- relative viability (HOP-62; first compound 2.53 µM): 0.245
- relative viability (HOP-62; first compound 8 µM): 0.244
- relative viability (COR-L23; first compound 0.08 µM): 0.409
- relative viability (COR-L23; first compound 0.253 µM): 0.446
- relative viability (COR-L23; first compound 0.8 µM): 0.411
- relative viability (COR-L23; first compound 2.53 µM): 0.424
- relative viability (COR-L23; first compound 8 µM): 0.495
